Measurements published in patent publication US20200319197A1, “Biomarkers of Preterm Birth” (Carmentix PTE. Ltd., priority 2017, published 2020).
Like-named read-outs stand apart in the source and are kept apart here.

Legend:
[1] = tested on: End1 cells; conditions: MTT, vs untreated control; for decrease in cell viability: significant
[2] = tested on: ECM1; conditions: Ect1, 200 μM H2O2, 24 h, vs control untreated cells, ± SEM
[3] = tested on: FGA; conditions: End1, 100 μM H2O2, 24 h, vs control untreated cells, ± SEM
[4] = tested on: EFEMP1; conditions: End1, 100 μM H2O2, 24 h, vs control untreated cells, ± SEM
[5] = tested on: GGH; experiment: GGH in medium of Ect1 post-H2O2 treatment, ELISA; conditions: for Fold change GGH expression: vs control untreated cells, ± SEM
[6] = tested on: GGH; experiment: GGH in medium of End1 post-H2O2 treatment, ELISA; conditions: vs control untreated cells, ± SEM
[7] = tested on: ECM1; experiment: ECM1 in medium of End1 post-H2O2 treatment, ELISA; conditions: vs control untreated cells, ± SEM
[8] = tested on: LAMC2; experiment: LAMC2 in medium of End1 post-H2O2 treatment, ELISA; conditions: vs control untreated cells, ± SEM
[9] = tested on: Ect1 cells; experiment: MTT assay, cell viability and proliferation after H2O2 treatment, Ect1; conditions: vs untreated control
[10] = tested on: ECM1; experiment: ECM1 in medium of Ect1 post-LPS treatment, ELISA; format: cell-based; conditions: 24 h, vs control untreated cells, ± SEM
Description: (§1) At Day 1, cell culture was removed and substituted with KSFM without growth factor supplement. Cells were then treated with increasing doses of LPS (10 μg/ml, 25 μg/ml, 50 μg/ml) at Day 2.

[11] = tested on: GGH; experiment: GGH in medium of Ect1 post-LPS treatment, ELISA; format: cell-based; conditions: for Fold change GGH expression: 24 h, vs control untreated cells, ± SEM
Description: as §1

[12] = tested on: FGA; experiment: FGA in medium of Ect1 post-LPS treatment, ELISA; format: cell-based; conditions: for Fold change FGA expression: 24 h, vs control untreated cells, ± SEM
Description: as §1

[13] = tested on: LAMC2; experiment: LAMC2 in medium of Ect1 post-LPS treatment, ELISA; format: cell-based; conditions: Ect1, 50 μg/ml LPS, 24 h, vs control untreated cells, ± SEM
Description: as §1

[14] = tested on: ECM1; experiment: ECM1 in medium of End1 post-LPS treatment, ELISA; format: cell-based; conditions: for Fold change ECM1 expression: 24 h, vs control untreated cells, ± SEM
Description: as §1

[15] = tested on: GGH; experiment: GGH in medium of End1 post-LPS treatment, ELISA; format: cell-based; conditions: for Fold change GGH expression: 24 h, vs control untreated cells, ± SEM
Description: as §1

[16] = tested on: FGA; experiment: FGA in medium of End1 post-LPS treatment, ELISA; format: cell-based; conditions: for Fold change FGA expression: 24 h, vs control untreated cells, ± SEM
Description: as §1

[17] = tested on: LAMC2; experiment: LAMC2 in medium of End1 post-LPS treatment, ELISA; format: cell-based; conditions: 24 h, vs control untreated cells, ± SEM
Description: as §1

[18] = Ect1, 3 different doses of LPS, statistically insignificant
[19] = End1, LPS treatment, dose not specified

Compound: OO [H2O2, Hydrogen peroxide]
- effect on cell viability ([1]; 50 μM H2O2, 24 h): no effect
- decrease in cell viability ([1]; 100 μM H2O2, 24 h): ~20%
- decrease in cell viability ([1]; 200 μM H2O2, 24 h): ~50%
- decrease in cell viability ([1]; 400 μM H2O2, 24 h): ~90%
- Fold change ECM1 expression [2]: 1.09 ± 0.21 fold
- Fold change FGA expression [3]: 0.96 ± 0.21 fold
- Fold change EFEMP1 expression [4]: 0.73 ± 0.12 fold
- Fold change GGH expression ([5]; Ect1, 200 μM H2O2, 24 h): 0.73 ± 0.16 fold
- Fold change GGH expression ([5]; Ect1, 400 μM H2O2, 24 h): 1.01 ± 0.25 fold
- GGH expression upon H2O2 treatment ([5]; Ect1, H2O2 24 h, dose not given): remained relatively unchanged
- Fold change GGH expression ([6]; End1, 100 μM H2O2, 24 h): 0.75 ± 0.16 fold
- Fold change GGH expression ([6]; End1, 200 μM H2O2, 24 h): 0.86 ± 0.18 fold
- Fold change ECM1 expression ([7]; End1, 100 μM H2O2, 24 h): 1.02 ± 0.16 fold
- Fold change ECM1 expression ([7]; End1, 200 μM H2O2, 24 h): 0.90 ± 0.07 fold
- Fold change LAMC2 expression ([8]; End1, 100 μM H2O2, 24 h): 1.15 ± 0.17 fold
- Fold change LAMC2 expression ([8]; End1, 200 μM H2O2, 24 h): 0.95 ± 0.16 fold
- effect on cell viability ([9]; 50 μM H2O2, 24 h): did not affect cell viability
- effect on cell viability ([9]; 100 μM H2O2, 24 h): did not affect cell viability
- decrease in cell density ([9]; 200 μM H2O2, 24 h, not statistically significant): 20%
- decrease in cell viability ([9]; 400 μM H2O2, 24 h, significant): ~50%

Compound: Lipopolysaccharide [LPS]
- Fold change ECM1 expression ([10]; Ect1, 10 μg/ml LPS): 0.87 ± 0.18 fold
- Fold change ECM1 expression ([10]; Ect1, 50 μg/ml LPS): 0.81 ± 0.17 fold
- Fold change GGH expression ([11]; Ect1, 10 μg/ml LPS): 1.67 ± 0.40 fold
- Fold change GGH expression ([11]; Ect1, 25 μg/ml LPS): 1.42 ± 0.23 fold
- Fold change GGH expression ([11]; Ect1, 50 μg/ml LPS): 1.80 ± 0.52 fold
- GGH expression in conditioned media [11, 18]: slight increases
- Fold change FGA expression ([12]; Ect1, 10 μg/ml LPS): 1.05 ± 0.15 fold
- Fold change FGA expression ([12]; Ect1, 25 μg/ml LPS): 1.13 ± 0.12 fold
- Fold change FGA expression ([12]; Ect1, 50 μg/ml LPS): 1.19 ± 0.22 fold
- FGA expression in conditioned media [12, 18]: slight increases
- Fold change LAMC2 expression [13]: 5.99 ± 1.86 fold
- Fold change ECM1 expression ([14]; End1, 10 μg/ml LPS): 0.94 ± 0.14 fold
- Fold change ECM1 expression ([14]; End1, 25 μg/ml LPS): 0.87 ± 0.11 fold
- Fold change ECM1 expression ([14]; End1, 50 μg/ml LPS): 0.76 ± 0.11 fold
- ECM1 expression in conditioned media ([14]; End1, LPS treatment, dose not specified, statistically insignificant): small decrease
- Fold change GGH expression ([15]; End1, 10 μg/ml LPS): 0.69 ± 0.15 fold
- Fold change GGH expression ([15]; End1, 25 μg/ml LPS): 0.92 ± 0.19 fold
- Fold change GGH expression ([15]; End1, 50 μg/ml LPS): 0.76 ± 0.13 fold
- GGH expression level in conditioned media [15, 19]: down-regulated
- Fold change FGA expression ([16]; End1, 10 μg/ml LPS): 0.90 ± 0.10 fold
- Fold change FGA expression ([16]; End1, 25 μg/ml LPS): 0.92 ± 0.15 fold
- Fold change FGA expression ([16]; End1, 50 μg/ml LPS): 0.78 ± 0.10 fold
- FGA expression level in conditioned media [16, 19]: down-regulated
- Fold change LAMC2 expression ([17]; End1, 10 μg/ml LPS): ~8 fold
- Fold change LAMC2 expression ([17]; End1, 25 μg/ml LPS): ~8 fold
- Fold change LAMC2 expression ([17]; End1, 50 μg/ml LPS): ~8 fold
